Measurements: publication PMC8238948, “Potent inhibitors of toxic alpha-synuclein identified via cellular time-resolved FRET biosensors” (NPJ Parkinson's Disease, 2021)
“Also recorded” adds a separate entry of the source. Structures can show the parent of a compound that is named as a salt. Where two headings read alike, the source gives them in different places.

Tests used:
[1] = target: T1, intra-protomeric αSN biosensor (GFP-αSN-RFP) in HEK293 cells (Homo sapiens, UniProt P37840); test: FRET response on intra-protomeric αSN biosensor; assay type: cell-based; details: 10 µM
T1 construct: In addition to full-length αSN fusion constructs, we observe both C-terminally and N-terminally truncated αSN species; expressed in transfected cells; host or cells: HEK293
Experimental: Hits were also evaluated with the intra-protomeric αSN and control, non-specific biosensors. […] The compounds RO, BAY, and DEM as well as the control EGCG each reduced FRET, indicating either reduction in oligomerization or expanded oligomer conformation. Tests of these compounds in two control biosensor systems (GFP/RFP at 1:8 and GFP-linker32-RFP; see Supplementary Fig. 13a, b, respectively) show no significant FRET change.
Fig. 7 FRET response to pilot HTS hits on intra-protomeric αSN biosensor. […] With both donor and acceptor XFP fused to one construct, this biosensor is sensitive to both oligomer formation as well as conformation. […] Experiments were performed with n = 3; *p < 0.05, **p < 0.01, ***p < 0.001, ns indicates no significant difference as determined by Student’s t test.

recombinant αSN = target: T2, recombinant αSN (Homo sapiens, UniProt P37840); test: Non-seeded Thioflavin-T assay (monomer induced aggregation); assay type: biochemical; details: 140 μM αSN monomer, 70 μM compound (1:2), 900 RPM, 37 °C
T2 construct: made in house; host or cells: Escherichia coli BL21(DE3), T7-7 plasmid
Experimental: ThT aggregation assays monitor the kinetics and extent of fibril formation due to spontaneous and seeded aggregation[26],[92]–[95]. The cascade of spontaneous αSN fibrillization includes formation and maturation of oligomeric αSN assemblies[96],[97]. Figure 10 presents spontaneous ThT aggregation for αSN(m) (140 µM) with or without hit compounds RO, DEM, and Bay (70 µM; a sub-stoichiometric ratio, 1:2, compound:protein).
Fig. 10 Monomer induced aggregation of αSN (non-seeded Thioflavin-T assay). Recombinant αSN was incubated at 140 μM monomer (70 μM compound) under continuous shaking (900 RPM) at 37 °C. All three hit compounds modulated αSN fibrillization with RO having a more significant effect over Bay and DEM, respectively.
ThT (Sigma, product no. T3516) was dissolved in PBS buffer and was filtered through a 0.2-µm syringe filter to make a stock solution of 2.5 mM. Working ThT concentration was 20 µM. PFF seeds were produced via constant agitation of 1000 RPM at 37 °C (ThermoMixer-C, Eppendorf, Hauppauge, NY) of 500 µL of 350 µM αSN in PBS in a 2 mL tube for 5 days. PFFs were aliquoted and flash frozen and stored at −80 °C until further use. PFF seeds were rapidly thawed, diluted to 35 µM in PBS, and sonicated 120 pulses at 50% using a probe-tip sonicator following the established protocols. Master mix samples for each of the different ThT assays were prepared and dispensed in triplicate as 50 µL in 384-well flat, black-bottom polypropylene plates (PN 781209, Greiner Bio-One) and sealed with fluorescently transparent film. Conditions for non-seeded, seeded, and cell homogenate assays varied slightly.
Non-seeded ThT master mix was prepared in cell culture PBS with 140 µM (2 mg/mL) αSN(m) and dispensed into compound plates at 70 µM final compound concentration (1:2 compound:protein ratio).

[2] = target: T3, WT αSN oligomer (inter-protomeric) FRET biosensor in HEK293 cells (Homo sapiens, UniProt P37840); test: FLT dose response, WT oligomer (inter-protomeric) FRET biosensor; assay type: cell-based; details: 1 nM to 50 μM
T3 construct: In addition to full-length αSN fusion constructs, we observe both C-terminally and N-terminally truncated αSN species; expressed in transfected cells; host or cells: HEK293
Experimental: Hits from the pilot HTS of the LOPAC library were selected and dispensed into 384-well plates to verify reproducible and specific FLT trends using the WT and A53T oligomer (inter-protomeric) FRET biosensors. Figure 6 presents a subset of these dose-response curves for hit compounds RO, BAY, SB206553, and DEM, along with known control compound EGCG. […] Assay quality was determined by Z′ (Eq. 2) where a Z′ > 0.5 indicates good assay quality. Using EGCG as control compound and the hit DEM, we calculated Z′ value of 0.76 and 0.66, respectively, indicating excellent assay quality.
Fig. 6 FRET dose response of pilot HTS hits. A subset of hits were evaluated using both WT (a) and A53T (b) oligomer biosensor to verify both increased FLT (disrupting αSN–αSN interactions) and decreased FLT (tighter aggregation or remodeled oligomers).
Compounds were tested in a FLT dose-response assay. The compound was dissolved to 10 mM in DMSO, then serially diluted in 96-well mother plates. Each hit was re-screened for FLT dose response across eight concentrations (1 nM to 50 μM). Compounds (0.5 μL) were transferred from mother plates into assay plates using a Mosquito HV liquid handler (TTP Labtech Ltd, UK). The preparations for αSN FRET biosensors were carried out as above.

[3] = system: SH-SY5Y cells overexpressing unlabeled wild-type (WT) αSN; test: CytoTox-Glo cytotoxicity assay: rescue of αSN-induced cytotoxicity; assay type: cell-based, human; details: for rescue of αSN-induced cytotoxicity: dose response, 48-h exposure; for rescue of toxicity in three-dose preliminary screen: three-dose assay; for EC50: read-out: EC50, protection of SH-SY5Y cells from αSN-induced death
Experimental: Hit compounds were evaluated for rescue of αSN-induced cytotoxicity in using an SH-SY5Y neuroblastoma cell model of alpha-synucleinopathy[18],[69]–[72]. […] A seven-point CRC for RO, BAY, DEM, and Anle138b (positive control compound[41],[73]) was performed to determine IC50 for each compound. […]
Cell cytotoxicity was measured using the CytoTox-Glo (Promega Corporation) Luminescence Assay Kit. SH-SY5Y human neuroblastoma cells were plated at a density of 5 × 10^6 cells/plate in 100 mm plate (Corning) and transfected with unlabeled WT αSN or equivalent vector-only control for 24 h. The transfected cells were then plated at a density of 5000 cells/well in white solid 96-well plate (Corning) with a total volume of 100 μL, followed by treatment with hit compounds spanning a range of concentrations (0.1 nM to 100 μM), as well as DMSO-only controls, for another 48 h. After incubation, 50 μL of CytoTox-Glo Cytotoxicity Assay Reagent was added to all wells followed by mixing by orbital shaking and incubation in the dark for 15 min at RT. Luminescence readings were measured using a Cytation3 Cell Imaging Multi-Mode Reader luminometer (BioTek). After the first read, 50 μL of Lysis Reagent was added, incubated for 15 min at RT, and a second read performed. Total viable cellular luminance was determined by the difference between the first and second luminescence signal and total cellular viability is determined by normalizing to the no-treatment samples.

COC(=O)C1=C(C)NC(C)=C([N+](=O)[O-])C1c1ccccc1C(F)(F)F (racemic) [BAY, (±)-Bay K 8644]
change in intra-protomeric FRET [1]: reduced FRET | ThT signal, spontaneous (non-seeded) aggregation (recombinant αSN): lesser degrees of attenuation | FLT trend in dose response [2]: reduced FLT | rescue of αSN-induced cytotoxicity [3]: reduced effect; also recorded: did not rescue | rescue of toxicity in three-dose preliminary screen [3]: only mild recovery

Nc1ccc(-c2nc3ccc(-c4nc5ccc(N)cc5[nH]4)cc3[nH]2)cc1 [RO, Ro 90–7501]
change in intra-protomeric FRET [1]: reduced FRET | ThT signal, spontaneous (non-seeded) aggregation (recombinant αSN): significant ThT signal reduction | FLT trend in dose response [2]: reduced FLT | EC50 ([3]; 72-h transfection, 48-h exposure to compound, seven-point CRC): 78 nM | rescue of αSN-induced cytotoxicity [3]: clear dose-dependent rescue of toxicity | rescue of toxicity in three-dose preliminary screen [3]: strong response

CN(C)[C@@H]1C(O)=C(C(N)=O)C(=O)[C@@]2(O)C(O)=C3C(=O)c4c(O)ccc(Cl)c4[C@@H](O)[C@H]3C[C@@H]12 [DEM, Demeclocycline HCl]
change in intra-protomeric FRET [1]: reduced FRET | ThT signal, spontaneous (non-seeded) aggregation (recombinant αSN): lesser degrees of attenuation | FLT trend in dose response [2]: reduced FLT | EC50 ([3]; Homo sapiens, SH-SY5Y, 72-h transfection, 48-h exposure to compound, seven-point CRC): 65 nM | IC50 ([3]; Homo sapiens, SH-SY5Y, 72-h transfection, 48-h exposure to compound, seven-point CRC, read-out: IC50, inhibition of αSN-induced toxicity): 65 nM | rescue of αSN-induced cytotoxicity [3]: clear dose-dependent rescue of toxicity | rescue of toxicity in three-dose preliminary screen [3]: strong response
